1 molecule from article PMC11685595, “Measuring plant cysteine oxidase interactions with substrates using intrinsic tryptophan fluorescence” (Scientific Reports, 2024) can be followed below.

Peptide text beside a SMILES is read from it.

One experiment concerns the target T1, AtPCO4.Ni(II) (Arabidopsis thaliana, UniProt Q9SJI9).
T1 construct: His6 (cleaved yes); made in house
The experiment in a line: Plate-based intrinsic Trp fluorescence quenching binding assay, AtPCO4.Ni(II). Particulars: 8 µM AtPCO4.Ni(II) (enzyme:metal 1:2), 0-750 µM peptide, anaerobic, 10 min, 25 °C, 50 mM Tris pH 7.5, 0.4 M NaCl, λex/λem 280/350 nm; ± Std. Error of fit, n = 3. The protocol: (§1) Following affinity purification, the His6-tag was cleaved using TEV protease and the cleaved tag was removed using a HisTrap HP column (GE Healthcare). To remove the active site metal which co-purifies with PCO enzymes, concentrated protein fractions were dialysed into 50 mM Tris (pH 7.5), 0.4 M NaCl, 100 mM EDTA and 10 mM 1,10-Phenanthroline followed by dialysis into 50 mM Tris (pH 7.5), 0.4 M NaCl and 0.1% (w/v) Chelex® 100 resin to remove excess EDTA and 1,10-Phenanthroline. Dialysed protein was then purified with a HiLoad 26/600 Superdex 75 prep grade size exclusion column (GE Healthcare) equilibrated with 50 mM Tris (pH 7.5) and 0.4 M NaCl (herein termed assay buffer). Protein purity was assessed with SDS-PAGE. To check that Fe(II) was removed, activity assays of metal-removed protein were conducted as described previously.
(§2) Metal-removed AtPCO4/5 was incubated with Ni(II) (NiCl2.6H2O, Alfa Aesar) at enzyme:metal, 1:2 ratio and diluted to the desired volume in assay buffer to a final enzyme concentration of 8 µM, termed the enzyme master mix.

The next experiment concerns the target T2, AtPCO5.Ni(II) (Arabidopsis thaliana, UniProt Q9LXT4).
T2 construct: His6 (cleaved yes); made in house
The experiment in a line: Plate-based intrinsic Trp fluorescence quenching binding assay, AtPCO5.Ni(II). The note with it: 8 µM AtPCO5.Ni(II) (enzyme:metal 1:2), 0-750 µM peptide, anaerobic, 10 min, 25 °C, 50 mM Tris pH 7.5, 0.4 M NaCl, λex/λem 280/350 nm; ± Std. Error of fit, n = 3. The protocol: as §1, §2

T2 sequence (Q9LXT4 whole entry): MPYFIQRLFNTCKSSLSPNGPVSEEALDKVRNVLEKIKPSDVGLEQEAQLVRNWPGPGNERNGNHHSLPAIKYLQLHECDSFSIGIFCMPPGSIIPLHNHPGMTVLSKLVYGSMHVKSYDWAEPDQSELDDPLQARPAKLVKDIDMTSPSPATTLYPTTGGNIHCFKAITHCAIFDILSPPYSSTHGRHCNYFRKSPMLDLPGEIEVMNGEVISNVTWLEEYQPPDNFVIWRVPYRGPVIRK

A word on the Kd: it is the concentration at which binding is half-saturated. The low end stands for tighter binding, the high end for weaker binding. With `CC[C@H](C)[C@H](NC(=O)[C@H](C)NC(=O)CNC(=O)CNC(=O)[C@@H](N)CS)C(=O)N[C@@H](CC(C)C)C(=O)N[C@@H](CO)C(=O)N[C@@H](CC(=O)O)C(=O)N[C@H](C(=O)N[C@H](C(=O)N[C@@H](C)C(=O)N1CCC[C@H]1C(=O)N[C@@H](CO)C(=O)N[C@@H](C)C(=O)O)[C@@H](C)CC)[C@@H](C)CC` [HRE1_2-15] (H-CGGAILSDIIAPSA-OH), the Kd at AtPCO4.Ni(II) was 298 ± 37.7 µM; on AtPCO5.Ni(II) it was 223 ± 10.3 µM.
